Laboratory results published in patent US12084430B2, “Tricyclic urea compounds as JAK2 V617F inhibitors” (Incyte Corporation, priority 2022, dated 2024).
pIC50: −log10 of the molar value.

Columns and labels:
TRKA [1] = target: TRKA (Homo sapiens, UniProt P04629); experiment: TRKA enzymatic assay; type: biochemical; details: 1 mM ATP
Method: (§1) Example I. TRKA Enzymatic Assay
(§2) The kinase assays were carried out at 24° C. temperature in assay buffer (HEPES 50 mM, pH 7.0, NaN3 0.02%, BSA 0.01%, Orthovanadate 0.1 mM, DTT 1 mM, MgCl2 10 mM) in a final volume of 10 μL. Testing compounds were prepared by serial dilution in DMSO and transferred to the plate wells by ECHO liquid handler (Labcyte) with 0.5% DMSO in the final assay. […]. Reactions were initiated by the addition of 5 μL ATP in assay buffer. The final 10 μL kinase reaction consists of 0.58 nM TRKA, 1 mM ATP, 500 nM TK Substrate-biotin and SEB reagent 62.5 nM in assay buffer. […] After 60 minutes incubation at room temperature, the product activity was determined by measuring the fluorescence at 620 nm and 665 nm on Pherastar microplate reader (BMG Labtech). A ratio is calculated (665/620 nm) for each well. Wells with DMSO only were served as the positive controls and wells containing no ATP were used as negative controls. IC50 determination was performed by fitting the curve of percent control activity versus the log of the compound concentration using the Gene data.

TRKA [2] = experiment: TRKA enzymatic assay; type: biochemical
Method: as §1, §2

[3] = In vitro intrinsic clearance; type: in vitro ADME; details: human liver microsomes, 1 μM
Method: Example G. In Vitro Intrinsic Clearance Protocol
For in vitro metabolic stability experiments, test compounds were incubated with human liver microsomes at 37° C. The incubation mixture contained test compounds (1 μM), NADPH (2 mM), and human liver microsomes (0.5 mg protein/mL) in 100 mM phosphate buffer (pH 7.4). The mixture was pre-incubated for 2 min at 37° C. before the addition of NADPH. Reactions were commenced upon the addition of NADPH and quenched with ice-cold methanol at 0, 10, 20, and 30 min. Terminated incubation mixtures were analyzed using LC-MS/MS system. The analytical system consisted of a Shimadzu LC-30AD binary pump system and SIL-30AC autosampler (Shimadzu Scientific Instruments, Columbia, MD) coupled with a Sciex Triple Quad 6500+ mass spectrometer from Applied Biosystems (Foster City, CA). […] Mobile phase A consisted of 0.1% formic acid in water, and mobile phase B consisted of 0.1% formic acid in acetonitrile. The total LC-MS/MS runtime was 2.75 minutes with a flow rate of 0.75 mL/min. Peak area integrations and peak area ratio calculations were performed using Analyst software (version 1.6.3) from Applied Biosystems.
The in vitro intrinsic clearance, CLint, in vitro, was calculated from the t1/2 of test compound disappearance as CLint, in vitro=(0.693/t1/2)×(1/Cprotein), where Cprotein is the protein concentration during the incubation, and t1/2 was determined by the slope (k) of the log-linear regression analysis of the concentration versus time profiles; thus, t1/2=ln 2/k. The CLint, in vitro values were scaled to the in vivo values for human by using physiologically based scaling factors, hepatic microsomal protein concentrations (45 mg protein/g liver), and liver weights (21 g/kg body weight). The equation CLint=CLint, in vitro×(mg protein/g liver weight)×(g liver weight/kg body weight) was used. The in vivo hepatic clearance (CLH) was then calculated by using CLint and hepatic blood flow, Q (20 mL·min^−1·kg^−1 in humans) in the well-stirred liver model disregarding all binding from CLH=(Q×CLint)/(Q+CLint). The hepatic extraction ratio was calculated as CLH divided by Q.

[4] = tested on: STAT5 (Tyr694) phosphorylation in SET-2 cells; experiment: STAT5 (Tyr694) phosphorylation cell based assay; details: Homo sapiens, pSTAT5, 2 hours, read-out: SET2 IC50
Method: Example E. STAT5 (Tyr694) Phosphorylation Cell Based Assay
SET-2 cells was purchased from DSMZ (Germany). RPMI1640 medium, Fetal Bovine Serum and 384-white sold flat-bottom small volume plate were purchased from Thermo Fisher Scientific (Waltham, MA). Phospho-STAT5 (Tyr694) HTRF kit was purchased from Perkin Elmer (Waltham, MA).
SET-2 cells were cultured in RPMI media with 20% FBS at 37° C. in humidified incubator supplied with 5% CO2. On the day of assay, the cells were centrifuged to remove the culture media and resuspended with prewarmed RPMI with 10% FBS. Testing compounds were prepared by serial dilution in DMSO and 50 nL/well test compounds were transferred to the 384 white low volume cell culture plate (Greiner Bio-one) by ECHO liquid handler (Labcyte). The cells were then dispensed with Multidrop (Thermo Fisher, Waltham, MA) at 10 μL/well (7×10^6 cells/mL) with 0.5% DMSO in the final assay. After the treated cells were incubated for 2 hours at 37° C./5% CO2 incubator, 4 μL/well supplemented lysis buffer (100× blocking buffer diluted 25 fold in 4× lysis buffer, Perkin Elmer) were added and incubated at room temperature for 90 min on orbital shaker at 600 rpm. Phospho-STAT5 Cryptate antibody and Phospho-STAT5 d2 antibody (1:1 vol/vol) were premixed and diluted 20 fold with in the detection buffer (Perkin Elmer). 4 μL of the premixed antibody solution were added to each well followed with 24 hours incubation at room temperature on orbital shaker at 600 rpm. The product activity was determined by measuring the fluorescence at 620 nm and 665 nm on Pherastar microplate reader (BMG Labtech). A ratio is calculated (665/620) for each well. Wells with DMSO only served as the positive controls and wells containing high concentration of control compound were used as negative controls. IC50 determination was performed by fitting the curve of percent control activity versus the log of the compound concentration using the GraphPad Prism 7.0 software.

TRKA (Homo sapiens, UniProt P04629), sequence (P04629 33-796, species assumed): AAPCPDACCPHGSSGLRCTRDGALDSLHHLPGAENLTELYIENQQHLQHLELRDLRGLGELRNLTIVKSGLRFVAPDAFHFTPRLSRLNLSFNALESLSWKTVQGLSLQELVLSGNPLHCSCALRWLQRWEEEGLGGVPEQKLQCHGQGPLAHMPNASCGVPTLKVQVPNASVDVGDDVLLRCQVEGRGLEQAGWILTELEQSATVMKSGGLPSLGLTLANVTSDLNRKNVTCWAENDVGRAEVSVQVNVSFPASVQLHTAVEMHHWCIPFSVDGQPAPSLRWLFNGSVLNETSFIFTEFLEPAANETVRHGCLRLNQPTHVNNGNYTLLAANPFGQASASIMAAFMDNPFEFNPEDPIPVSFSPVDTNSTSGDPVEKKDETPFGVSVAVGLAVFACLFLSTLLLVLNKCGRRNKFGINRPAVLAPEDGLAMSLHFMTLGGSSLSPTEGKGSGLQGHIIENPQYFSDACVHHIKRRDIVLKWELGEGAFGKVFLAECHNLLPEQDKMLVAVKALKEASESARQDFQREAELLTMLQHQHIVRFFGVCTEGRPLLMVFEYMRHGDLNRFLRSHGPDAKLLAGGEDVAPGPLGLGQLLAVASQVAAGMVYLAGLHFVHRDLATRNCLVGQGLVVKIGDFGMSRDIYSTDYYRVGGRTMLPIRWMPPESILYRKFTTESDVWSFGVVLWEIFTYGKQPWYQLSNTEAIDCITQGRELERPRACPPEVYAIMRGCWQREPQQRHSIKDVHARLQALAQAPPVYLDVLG

SMILES	pIC50 (TRKA [1])	Selectivity TRKA/JH2 V617F (TRKA [2])	h-IntCL [3]	pIC50 [4]
[2H]C([2H])([2H])n1cc(-c2[nH]c3ncc4c(c3c2-c2ccc(C(C)(C)O)cc2)n([C@@H]2CC[C@@H](NC(=O)OC)C2)c(=O)n4C([2H])([2H])[2H])c(F)n1 [Example 10, Methyl ((1R,3R)-3-(7-(3-fluoro-1-(methyl-d3)-1H-pyrazol-4-yl)-8-(4-(2-hydroxypropan-2-yl)phenyl)-3-(methyl-d3)-2-oxo-3,6-dihydroimidazo[4,5-d]pyrrolo[2,3-b]pyridin-1(2H)-yl)cyclopentyl)carbamate]	< 5.60	****** (selectivity of >12500-fold)	‡ ‡ (h-IntCL of ≥0.7 L/h/kg to ≤1 L/h/kg)	≥ 6.52
COC(=O)N[C@@H]1CC[C@@H](n2c(=O)n(C)c3cnc4[nH]c(-c5cn(C)nc5OC)c(-c5ccc(F)cc5)c4c32)C1 [Example 1, Methyl ((1R,3R)-3-(8-(4-fluorophenyl)-7-(3-methoxy-1-methyl-1H-pyrazol-4-yl)-3-methyl-2-oxo-3,6-dihydroimidazo[4,5-d]pyrrolo[2,3-b]pyridin-1(2H)-yl)cyclopentyl)carbamate]	5.60 to 5.90	** (selectivity of >500-fold to ≤1500-fold)	‡ ‡ (h-IntCL of ≥0.7 L/h/kg to ≤1 L/h/kg)	< 6.10
[2H]C([2H])([2H])n1cc(-c2[nH]c3ncc4c(c3c2-c2cc(F)c3c(cnn3C([2H])([2H])[2H])c2)n([C@@H]2CC[C@@H](NC(=O)OC)C2)c(=O)n4C([2H])([2H])[2H])c(F)n1 [Example 17, Methyl ((1R,3R)-3-(8-(7-fluoro-1-(methyl-d3)-1H-indazol-5-yl)-7-(3-fluoro-1-(methyl-d3)-1H-pyrazol-4-yl)-3-(methyl-d3)-2-oxo-3,6-dihydroimidazo[4,5-d]pyrrolo[2,3-b]pyridin-1(2H)-yl)cyclopentyl)carbamate]	< 5.60	****** (selectivity of >12500-fold)	‡ ‡ (h-IntCL of ≥0.7 L/h/kg to ≤1 L/h/kg)	≥ 6.52
[2H]C([2H])([2H])n1ncc2cc(-c3c(-c4cn(C)nc4OC)[nH]c4ncc5c(c34)n([C@@H]3CC[C@@H](NC(=O)OC)C3)c(=O)n5C)ccc21 [Example 5, Methyl ((1R,3R)-3-(7-(3-methoxy-1-methyl-1H-pyrazol-4-yl)-3-methyl-8-(1-(methyl-d3)-1H-indazol-5-yl)-2-oxo-3,6-dihydroimidazo[4,5-d]pyrrolo[2,3-b]pyridin-1(2H)-yl)cyclopentyl)carbamate]	< 5.60	****** (selectivity of >12500-fold)	‡ (h-IntCL of <0.7 L/h/kg)	≥ 6.52
[2H]C([2H])([2H])n1ncc2cc(-c3c(-c4cn(C)nc4OC)[nH]c4ncc5c(c34)n(C3CCOCC3)c(=O)n5C)ccc21 [B, reference compound]	< 5.60	** (selectivity of >500-fold to ≤1500-fold)	‡ ‡ (h-IntCL of ≥0.7 L/h/kg to ≤1 L/h/kg)	< 6.10
[2H]C([2H])([2H])n1c(=O)n([C@@H]2CC[C@@H](NC(=O)OC)C2)c2c3c(-c4ccc5c(c4)COC5(C)C)c(-c4cn(CC(F)F)nc4F)[nH]c3ncc21 [Example 12, Methyl ((1R,3R)-3-(7-(1-(2,2-difluoroethyl)-3-fluoro-1H-pyrazol-4-yl)-8-(1,1-dimethyl-1,3-dihydroisobenzofuran-5-yl)-3-(methyl-d3)-2-oxo-3,6-dihydroimidazo[4,5-d]pyrrolo[2,3-b]pyridin-1(2H)-yl)cyclopentyl)carbamate]	< 5.60	****** (selectivity of >12500-fold)	‡ ‡ (h-IntCL of ≥0.7 L/h/kg to ≤1 L/h/kg)	≥ 6.52
[2H]C([2H])([2H])n1cc(-c2[nH]c3ncc4c(c3c2-c2ccc3c(cnn3CC(F)F)c2)n([C@@H]2CC[C@@H](NC(=O)OC)C2)c(=O)n4C([2H])([2H])[2H])c(F)n1 [Example 14, Methyl ((1R,3R)-3-(8-(1-(2,2-difluoroethyl)-1H-indazol-5-yl)-7-(3-fluoro-1-(methyl-d3)-1H-pyrazol-4-yl)-3-(methyl-d3)-2-oxo-3,6-dihydroimidazo[4,5-d]pyrrolo[2,3-b]pyridin-1(2H)-yl)cyclopentyl)carbamate]	< 5.60	****** (selectivity of >12500-fold)	‡ ‡ (h-IntCL of ≥0.7 L/h/kg to ≤1 L/h/kg)	≥ 6.52
[2H]C([2H])([2H])n1cc(-c2[nH]c3ncc4c(c3c2-c2ccc3c(c2)COC3(C)C)n([C@@H]2CC[C@@H](NC(=O)OC)C2)c(=O)n4C)c(F)n1 [Example 11, Methyl ((1R,3R)-3-(8-(1,1-dimethyl-1,3-dihydroisobenzofuran-5-yl)-7-(3-fluoro-1-(methyl-d3)-1H-pyrazol-4-yl)-3-methyl-2-oxo-3,6-dihydroimidazo[4,5-d]pyrrolo[2,3-b]pyridin-1(2H)-yl)cyclopentyl)carbamate]	< 5.60	****** (selectivity of >12500-fold)	‡ ‡ (h-IntCL of ≥0.7 L/h/kg to ≤1 L/h/kg)	≥ 6.52
COc1nn(C)cc1-c1[nH]c2ncc3c(c2c1-c1ccc2c(cnn2C)c1)n([C@H]1CC[C@@H](CC#N)CC1)c(=O)n3C [E, reference compound]	5.90 to 6.60	** (selectivity of >500-fold to ≤1500-fold)	‡ ‡ ‡ (h-IntCL of >1 L/h/kg)	6.10 to 6.52
[2H]C([2H])([2H])n1c(=O)n([C@@H]2CC[C@@H](NC(=O)OC)C2)c2c3c(-c4ccc5c(c4)COC5(C)C)c(-c4cn(CC)nc4F)[nH]c3ncc21 [Example 20, Methyl ((1R,3R)-3-(8-(1,1-dimethyl-1,3-dihydroisobenzofuran-5-yl)-7-(1-ethyl-3-fluoro-1H-pyrazol-4-yl)-3-(methyl-d3)-2-oxo-3,6-dihydroimidazo[4,5-d]pyrrolo[2,3-b]pyridin-1(2H)-yl)cyclopentyl)carbamate]	< 5.60	****** (selectivity of >12500-fold)	‡ ‡ (h-IntCL of ≥0.7 L/h/kg to ≤1 L/h/kg)	≥ 6.52
